One assay has as its system aortic sterol content. Briefly: Decrease of aortic sterol content without effecting serum sterol in cholesterol-fed cockerels. As to conditions: 525 mg. test compound and 20 g. cholesterol per kg. of diet, 14 days. The assay is classed as in vivo, Day-old Cockerels. Further details: key: Active: Compounds which statistically decrease the aortic sterol content without having an effect on serum sterol are considered to be active. The method, then: The compounds were further tested for their ability to decrease aortic sterol content without effecting serum sterol.
Day-old Cockerels were placed on diets consisting of pullet starter mash supplemented with either 20 g. cholesterol (control group) or 20 g. cholesterol and 525 mg. test compound (drug-treated group) per kg. of diet.
For the control diet, 20 g. of cholesterol was dissolved in 200 ml. of chloroform, mixed into one kg. of pullet starter mash and then the choloroform was removed by evaporation.
For the drug-treatment group, 525 mg. of the test compound was dissolved in 100 ml. of chloroform, mixed into a diet prepared as described above and then the chloroform was evaporated.
The cockerels were housed three per cage and given water and their respective diet ad libitum for 14 days. Blood was collected by cardiac puncture and the serum was saponified [Trinder, P., Analyst, 77, 321 (1952)] and extracted and the cholesterol content determinted [Zlatkis, A., et al., J. Lab Clin Med., 41 486 (1953)]. The aortae were removed, cleaned of adventitial tissue and the sterol content determined according to the above procedures. Compounds which statistically decrease the aortic sterol content without having an effect on serum sterol are considered to be active.

Assay [1] deals with serum cholesterol and triglyceride. Description: Lowering of serum lipid levels, oral administration in diet to rats. The assay is classed as in vivo, male rats COBS, CD, SD strain. As to conditions: 0.1% of test compound by weight in diet, 5 days, vs control rats. How it is done: The compounds were also tested for their ability to lower lipid levels in mammals. The compounds were administered orally admixed with diet to groups of four male rats COBS, CD, SD strain from Charles River Breeding Laboratories, Inc., Wilmington, Mass. A control group of eight rats was maintained on the diet alone; test groups were maintained on the diet plus 0.1% of test compound by weight. After 5 days treatment, serum cholesterol and triglyceride concentrations were determined by direct enzymatic procedures using a Centrifichem® System 400 autoanalyzer (Union Carbide Co.). Cholesterol concentrations were determined by the combined cholesterol esterasecholesterol oxidase procedure of Roeschlau, et al., Zeit. Klin. Chem. Klin. Biochem., 12, 226 (1974). Triglycerides were determined by the combined method of lipase catalyzed hydrolysis of triglycerides to glycerol and free fatty acids [Bucolo, G. and David, H., Clin. Chem., 19, 476 (1973) and Wahlefeld, A. W., in "Methods of Enzymatic Analysis," Vol, 4, Bergmeyer, H. D., Editor, Academic Press, New York, N.Y. (1974), pp. 1831-1835] and the enzymatic oxidation of the glycerol which leads to the production of colored formazan [Stavropoulos, W. S. and Crouch, R. D., Clin. Chem., 20, No. 7, 857 (1974)]. […] The compounds are considered active if they produce a statistically significant lowering of either sterol or triglycerides.

For assay [2], the target named is T1, fatty acyl CoA:-cholesterol acyl transferase (ACAT) (Rattus norvegicus, UniProt O70536).
T1 construct: The supernatant, containing the microsomal fraction, served as the source of the cholesterol-esterifying enzyme; from tissue; host or cells: rat adrenals, 1000 x g supernatant containing the microsomal fraction
T1 sequence (O70536 1-545): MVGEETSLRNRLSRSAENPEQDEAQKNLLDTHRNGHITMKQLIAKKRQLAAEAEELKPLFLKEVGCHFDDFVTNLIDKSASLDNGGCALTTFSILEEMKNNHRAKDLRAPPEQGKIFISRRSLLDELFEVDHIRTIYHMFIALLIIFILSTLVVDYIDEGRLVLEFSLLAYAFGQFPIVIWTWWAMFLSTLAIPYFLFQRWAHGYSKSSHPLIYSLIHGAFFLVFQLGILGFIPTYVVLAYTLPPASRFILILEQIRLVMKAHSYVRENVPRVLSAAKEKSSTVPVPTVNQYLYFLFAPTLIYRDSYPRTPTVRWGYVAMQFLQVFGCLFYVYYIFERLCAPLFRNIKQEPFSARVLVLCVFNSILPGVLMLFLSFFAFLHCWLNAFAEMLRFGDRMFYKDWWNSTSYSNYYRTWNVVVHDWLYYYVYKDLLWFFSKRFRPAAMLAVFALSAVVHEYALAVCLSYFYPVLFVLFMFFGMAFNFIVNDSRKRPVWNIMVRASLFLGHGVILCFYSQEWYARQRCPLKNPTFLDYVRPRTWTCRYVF
Briefly: Inhibition of enzymatic esterification of cholesterol (ACAT inhibition), rat adrenal supernatant. In kind it is biochemical. The conditions noted are these: final concentration 5.2 μg./ml., 37° C., 30 minutes. How it is done:
The compounds of the present invention were tested for their ability to inhibit the enzymatic esterification of cholesterol according to the procedure of Hashimoto, et al., Life Sci., 12(Part II), 1-12 (1973).
Rat adrenals were homogenized in 0.2 M monobasic potassium phosphate buffer, pH 7.4, and centrifuged at 1000 times gravity for 15 minutes at 5° C. The supernatant, containing the microsomal fraction, served as the source of the cholesterol-esterifying enzyme, fatty acyl CoA:-cholesterol acyl transferase (ACAT). A mixture comprising 50 parts of adrenal supernatant, 10 parts of bovine serum albumin (50 mg./ml.), 3 parts of test compound (final concentration 5.2 μg./ml.) and 500 parts of buffer were preincubated at 37° C. for 10 minutes, following which 20 parts of oleoyl […] were added and the final mixture was incubated at 37° C. for 30 minutes. A control mixture, omitting the test compound, was prepared and treated in the same manner. The lipids from the incubation mixture were extracted into an organic solvent and separated by thin-layer chromatography. The cholesterol ester fraction was counted in a scintillation counter. A statistically significant inhibition of the ACAT enzyme is the criterion for activity.

Turning to `Cc1ccccc1CC(=O)N1CCN(c2cnccn2)CC1` [1-(o-Methylphenylacetyl)-4-(2-pyrazinyl)piperazine], the “Result (decrease of aortic sterol content without effect on serum sterol)” value with aortic sterol content was “Active”.
Regarding `CCNC(=O)N1CCN(c2cnccn2)CC1` [N--Ethyl-4-(2-pyrazinyl)-1-piperazinecarboxamide], in assay [1], the “% Lowering of Serum Triglycerides” value came to 43%.
Take `O=C(c1c(F)c(F)c(F)c(F)c1F)N1CCN(c2cnccn2)CC1` [1-Pentafluorobenzoyl-4-(2-pyrazinyl)piperazine]: in assay [2], the inhibition – broadly, the drop in the measured response relative to a control, in per cent – at 5.2 µg/mL was 31.2%.
With `CC(Oc1ccccc1)C(=O)N1CCN(c2cnccn2)CC1` (stereo not drawn) [1-(2-Phenoxypropionyl)-4-(2-pyrazinyl)piperazine], the inhibition at 5.2 µg/mL in assay [2] turned out to be 30.5%. In addition, the “% Lowering of Serum Triglycerides” value in assay [1] came to 62%.
`O=C(Cc1ccc(Cl)cc1)N1CCN(c2cnccn2)CC1` [1-(p-Chlorophenylacetyl)-4-(2-pyrazinyl)piperazine]: the “% Lowering of Serum Triglycerides” value in assay [1] is on record as 51%.
Turning to `O=C(N1CCN(c2cnccn2)CC1)C(F)(F)C(F)(F)C(F)(F)C(F)(F)C(F)(F)C(F)(F)C(F)(F)F` [1-(Pentadecafluorooctanoyl)-4-(2-pyrazinyl)piperazine], in assay [2], the inhibition at 5.2 µg/mL worked out at 39%. In assay [1], the “% Lowering of Serum Sterol” value turned out to be 47% and the “% Lowering of Serum Triglycerides” value is 74%.
Consider `O=C(Cc1ccccc1)N1CCN(c2ccc3ccccc3n2)CC1` [1-phenylacetyl-4-(2-quinolyl)piperazine, 1-Phenylacetyl-4-(2-quinolyl)piperazine], for which, in assay [2], 5.2 µg/mL produced 89.7% inhibition. In assay [1], the “% Lowering of Serum Sterol” value is 69% and the “% Lowering of Serum Triglycerides” value was found to be 53%.
For the molecule `Cc1cccc(CC(=O)N2CCN(c3cnccn3)CC2)c1` [1-(2-Pyrazinyl)-4-(m-tolylacetyl)piperazine], the “% Lowering of Serum Triglycerides” value in assay [1] came out at 40%.
Turning to `O=C(Cc1ccccc1)N1CCN(c2ccc(Cl)cc2)CC1` [1-(p-Chlorophenyl)-4-phenylacetylpiperazine], the inhibition at 5.2 µg/mL in assay [2] came to 73.3%.
`O=C(O)c1ccc(NC(=O)N2CCN(c3cnccn3)CC2)cc1` [p-[4-(2-Pyrazinyl)-1-piperazinecarboxamide]-benzoic acid] returned an inhibition at 5.2 µg/mL in assay [2] of 30.6%.
In the case of `O=C(c1ccccc1)N1CCN(c2cnccn2)CC1` [1-benzoyl-4-(2-pyrazinyl)piperazine, 1-Benzoyl-4-(2-pyrazinyl)piperazine], in assay [1], the “% Lowering of Serum Triglycerides” value was determined as 30%.
In assay [2], `CC(C)(Oc1ccc(Cl)cc1)C(=O)N1CCN(c2cnccn2)CC1` [1-[2-(p-Chlorophenoxy)-2-methylpropionyl]-4-(2-pyrazinyl)piperazine] gave an inhibition at 5.2 µg/mL of 54.1%. In assay [1], the “% Lowering of Serum Triglycerides” value was found to be 42%.
As for `O=C(Cc1ccc(Cl)cc1Cl)N1CCN(c2cnccn2)CC1` [1-(2,4-Dichlorophenylacetyl)-4-(2-pyrazinyl)piperazine], in assay [2], at 5.2 µg/mL the inhibition was 32.2%. In assay [1], the “% Lowering of Serum Triglycerides” value is 44%.
With `O=C(c1cccnc1)N1CCN(c2cnccn2)CC1` [1-(2-Pyrazinyl)-4-(3-pyridylcarbonyl)piperazine], the “% Lowering of Serum Triglycerides” value in assay [1] stood at 30%.
As to `O=C(C1CC1)N1CCN(c2cnccn2)CC1` [1-Cyclopropylcarbonyl-4-(2-pyrazinyl)piperazine], the “% Lowering of Serum Triglycerides” value in assay [1] was 37%.
As to `O=C(CCCCC(=O)N1CCN(c2cnccn2)CC1)c1ccc(Cl)cc1` [1-[5-(p-Chlorobenzoyl)valeryl]-4-(2-pyrazinyl)piperazine], in assay [2], at 5.2 µg/mL the inhibition was 47.4%. In addition, in assay [1], the “% Lowering of Serum Triglycerides” value turned out to be 45%.
`O=C(Cc1ccccc1)N1CCN(c2cnc3ccccc3n2)CC1` [1-Phenylacetyl-4-(2-quinoxalinyl)piperazine] registered an inhibition at 5.2 µg/mL in assay [2] of 40.1%.
Turning to `O=C(Cc1cccc(Cl)c1)N1CCN(c2cnccn2)CC1` [1-(m-Chlorophenylacetyl)-4-(2-pyrazinyl)piperazine], the “% Lowering of Serum Triglycerides” value in assay [1] is given as 46%.
On to `O=C(N1CCN(c2cnccn2)CC1)C(F)(F)C(F)(F)C(F)(F)F` [1-Heptafluorobutyroyl-4-(2-pyrazinyl)piperazine], for which the “% Lowering of Serum Triglycerides” value in assay [1] worked out at 51%.
As for `CC1CN(C(=O)Cc2ccccc2)CCN1c1ccc(Cl)cc1` (stereo not drawn) [1-(p-Chlorophenyl)-2-methyl-4-phenylacetylpiperazine], in assay [2], the inhibition at 5.2 µg/mL came to 88.1%. Also, the “% Lowering of Serum Triglycerides” value in assay [1] turned out to be 61%.
In assay [2], `CC(C)(C)c1ccc(C(=O)N2CCN(c3cnccn3)CC2)cc1` [1-(p-tert.-Butylbenzoyl)-4-(2-pyrazinyl)piperazine] came in with an inhibition at 5.2 µg/mL of 39.7%.
In turn, `COc1cncc(N2CCN(C(=O)Cc3ccccc3)CC2)n1` [1-(6-Methoxy-2-pyrazinyl)-4-phenylacetylpiperazine] showed an inhibition at 5.2 µg/mL in assay [2] of 38.1%. Moreover, the “% Lowering of Serum Triglycerides” value in assay [1] is reported as 56%.
As for `Cc1ccccc1CC(=O)N1CCN(c2cnccn2)CC1` [1-(2-Methylphenylacetyl)-4-(2-pyrazinyl)piperazine], the “% Lowering of Serum Triglycerides” value in assay [1] is given as 55%.
On to `CCCCCCCC(=O)N1CCN(c2cnccn2)CC1` [1-octanoyl-4-(2-pyrazinyl)piperazine, 1-Octanoyl-4-(2-pyrazinyl)piperazine], for which, in assay [2], the inhibition at 5.2 µg/mL was determined as 33.6%.
For the molecule `O=C(CCCCCc1ccc(Cl)cc1)N1CCN(c2cnccn2)CC1` [1-[6-(p-Chlorophenyl)hexanoyl]-4-(2-pyrazinyl)piperazine], the inhibition at 5.2 µg/mL in assay [2] was 68.9%. Besides, in assay [1], the “% Lowering of Serum Triglycerides” value amounted to 30%.
On to `Cc1ccccc1CC(=O)N1CCN(c2nccs2)CC1` [1-(2-Thiazolyl)-4-o-tolylacetylpiperazine], for which, in assay [2], 5.2 µg/mL produced 32.6% inhibition.
Regarding `O=C(Nc1ccc(Cl)cc1)N1CCN(c2cnccn2)CC1` [4'-Chloro-4-(2-pyrazinyl)-1-piperazinecarboxanilide], the “% Lowering of Serum Triglycerides” value in assay [1] came to 33%.
In assay [2], `CC(C)(C)NC(=O)N1CCN(c2cnccn2)CC1` [N--tert.-Butyl-4-(2-pyrazinyl)-1-piperazinecarboxamide] gave an inhibition at 5.2 µg/mL of 35.4%.
Turning to `O=C(Cc1ccccc1)N1CCN(Cc2cccnc2)CC1` [1-Phenylacetyl-4-(3-pyridylmethyl)piperazine], the “% Lowering of Serum Triglycerides” value in assay [1] was 34%.
Same read-out and setting: the figure for `CNC(=O)N1CCN(c2cnccn2)CC1` [N--Methyl-4-(2-pyrazinyl)-1-piperazinecarboxamide] is 38%.
In turn, `CCOC(=O)c1ccc(NC(=O)N2CCN(c3cnccn3)CC2)cc1` [Ethyl-p-[4-(2-pyrazinyl)-1-piperazinecarboxamido]benzoate] gave an inhibition at 5.2 µg/mL in assay [2] of 42.2%.

(Values after patent US4439606A, “Antiatherosclerotic 1-piperazinecarbonyl compounds” (American Cyanamid Company, priority 1982, dated 1984).)
